Laboratory results as given in patent US9315502B2, “Imidazopyridine derivatives” (Hoffmann-La Roche Inc., priority 2012, dated 2016).

Key:
[1] = system: human embryonic stem cell derived neural stem cells (NSCs); test: Neural Stem Cell Proliferation Assay (neurogenesis assay, ATP levels by CellTiterGlo); assay type: cell-based; conditions: 96 h, compound concentration at which 150% activity of control (100%) is reached, NSC proliferation, 4 days incubation
Method: Neural Stem Cell Proliferation Assay
Neurogenic properties of small molecules are determined based on the proliferation of human embryonic stem cell derived neural stem cells (NSCs) which were derived via a dual smad inhibition as previously described (Chambers, S. M., et al., Highly efficient neural conversion of human ES and iPS cells by dual inhibition of SMAD signaling, Nature biotechnology, 2009. 27(3): p. 275-80.)
Compounds respond is measured by the increase in cells based on ATP levels
(Promega:CellTiterGlo®) after an incubation period of 4 days.
NSCs are thawed and expanded over 3 passages. On the 14th day, NSCs are seeded in Polyornithin/Laminin coated 384 well plates at a cell density of 21′000 cells/cm^2 in a media volume of 38 μl.
4 hours after cell seeding, compound solutions are added at a volume of 2 μl. Stock solutions of the compounds (water, 5% DMSO) are diluted to obtain a dose response (11 points, dilution factor is 2), ranging from 8 μM to 8 nM. Controls are run to consistently determine the neurogenic properties of the cells:
Negative (neutral) control is cell culture Media (final DMSO concentration: 0.25%). Positive controls are: • 1. cell culture Media+100 ng/ml FGF2 (final DMSO concentration: 0.1%) • 2. cell culture Media+20 ng/ml EGF (final DMSO concentration: 0.1%) • 3. cell culture Media+100 ng/ml Wnt3a (final DMSO concentration: 0.1%)
After 4 days incubation at 37° C., 5% CO2, the amount of ATP per well is quantified. The ATP concentration is proportional to the cell number. ATP is quantified by using the Promega CellTiterGlo® kit. The CellTiterGlo® reagents contain a cell lysis buffer, a thermo stable luciferase (UltraGlo™ recombinant luciferase), magnesium and luciferin. Luciferin reacts with ATP producing oxyluciferin, AMP and light. The luminescence signal is proportional to the ATP content.
The value of negative (neutral) control is determined for each assay plate by taking the average of 16 negative control wells. The neurogenic compound response is calculated for each compound as (compound/Negative Control)* 100.
The values of EC150 from the dose response curve are determined for each test compound. The EC150 is the compound concentration at which 150% activity of control (100%) is reached.

| melting point [°C] | SMILES | EC (150% of control) [1] [µM] |
| --- | --- | --- |
| 172 | Fc1ccc(-c2cnc3ccc(-c4ccnn4-c4ccc(F)cc4)cn23)cc1 [Example 1, 3-(4-Fluoro-phenyl)-6-[2-(4-fluoro-phenyl)-2H-pyrazol-3-yl]-imidazo[1,2-a]pyridine] | 0.019 |
| 172.5 | Clc1ccc(-c2cnc3ccc(-c4ccnn4-c4ccc(Cl)cc4)cn23)cc1 [Example 2, 3-(4-Chloro-phenyl)-6-[2-(4-chloro-phenyl)-2H-pyrazol-3-yl]-imidazo[1,2-a]pyridine] | 0.1 |
| 147 | Fc1ccc(-c2cnc3ccc(-c4ccnn4-c4ccc(Cl)cc4)cn23)cc1 [Example 3, 6-[2-(4-Chloro-phenyl)-2H-pyrazol-3-yl]-3-(4-fluoro-phenyl)-imidazo[1,2-a]pyridine] | 0.096 |
| 171 | Fc1ccc(-n2nccc2-c2ccc3ncc(-c4ccc(Cl)cc4)n3c2)cc1 [Example 4, 3-(4-Chloro-phenyl)-6-[2-(4-fluoro-phenyl)-2H-pyrazol-3-yl]-imidazo [1,2-a]pyridine] | 0.092 |
| 141 | Cc1ccc(-n2nccc2-c2ccc3ncc(-c4ccc(F)cc4)n3c2)cc1 [Example 5, 3-(4-Fluoro-phenyl)-6-(2-p-tolyl-2H-pyrazol-3-yl)-imidazo[1,2-a]pyridine] | 0.008 |
| 201 | Fc1ccc(-n2nccc2-c2ccc3ncc(-c4ccncc4)n3c2)cc1 [Example 6, 6-[2-(4-Fluoro-phenyl)-2H-pyrazol-3-yl]-3-pyridin-4-yl-imidazo [1,2-a]pyridine] | 0.026 |
| 186 | Clc1ccc(-n2nccc2-c2ccc3ncc(-c4ccncc4)n3c2)cc1 [Example 7, 6-[2-(4-Chloro-phenyl)-2H-pyrazol-3-yl]-3-pyridin-4-yl-imidazo[1,2-a]pyridine] | 0.022 |
| 139 | c1ccc(-c2cnc3ccc(-c4ccnn4-c4ccccc4)cn23)cc1 [Example 8, 3-Phenyl-6-(2-phenyl-2H-pyrazol-3-yl)-imidazo[1,2-a]pyridine] | 0.019 |
| 187 | Fc1ccc(-n2nccc2-c2ccc3ncc(-c4ccc(Cl)cc4F)n3c2)cc1 [Example 9, 3-(4-Chloro-2-fluoro-phenyl)-6-[2-(4-fluoro-phenyl)-2H-pyrazol-3-yl]-imidazo[1,2-a]pyridine] | 0.055 |
| 107 | Cc1ccc(-n2nccc2-c2ccc3ncc(-c4ccccc4)n3c2)cc1 [Example 10, 3-Phenyl-6-(2-p-tolyl-2H-pyrazol-3-yl)-imidazo[1,2-a]pyridine] | 0.009 |
| 148 | Fc1cc(Cl)ccc1-c1cnc2ccc(-c3ccnn3-c3ccc(Cl)cc3)cn12 [Example 11, 3-(4-Chloro-2-fluoro-phenyl)-6-[2-(4-chloro-phenyl)-2H-pyrazol-3-yl]-imidazo[1,2-a]pyridine] | 0.089 |
| 142 | COc1ccc(-c2cnc3ccc(-c4ccnn4-c4ccc(Cl)cc4)cn23)cc1 [Example 12, 6-[2-(4-Chloro-phenyl)-2H-pyrazol-3-yl]-3-(4-methoxy-phenyl)-imidazo [1,2-a]pyridine] | 0.045 |
| 162 | COc1ccc(-c2cnc3ccc(-c4ccnn4-c4ccc(F)cc4)cn23)cc1 [Example 13, 6-[2-(4-Fluoro-phenyl)-2H-pyrazol-3-yl]-3-(4-methoxy-phenyl)-imidazo [1,2-a]pyridine] | 0.024 |
| 168 | Fc1ccc(-n2nccc2-c2ccc3ncc(-c4ccc(F)cc4F)n3c2)cc1 [Example 14, 3-(2,4-Difluoro-phenyl)-6-[2-(4-fluoro-phenyl)-2H-pyrazol-3-yl]-imidazo[1,2-a]pyridine] | 0.053 |
| 152 | Fc1ccc(-c2cnc3ccc(-c4ccnn4-c4ccc(Cl)cc4)cn23)c(F)c1 [Example 15, 6-[2-(4-Chloro-phenyl)-2H-pyrazol-3-yl]-3-(2,4-difluoro-phenyl)-imidazo[1,2-a]pyridine] | 0.029 |
| 206 | Fc1ccc(-c2cnc3ccc(-c4cncn4-c4ccc(F)cc4)cn23)cc1 [Example 16, 3-(4-Fluoro-phenyl)-6-[3-(4-fluoro-phenyl)-3H-imidazol-4-yl]-imidazol[1,2-a]pyridine] | 0.053 |
| 167 | FC(F)(F)c1ccc(-c2cnc3ccc(-c4ccnn4-c4ccc(Cl)cc4)cn23)cc1 [Example 17, 6-[2-(4-Chloro-phenyl)-2H-pyrazol-3-yl]-3-(4-trifluoromethyl-phenyl)-imidazo[1,2-a]pyridine] | 0.38 |
| 172 | Fc1ccc(-n2nccc2-c2ccc3ncc(-c4ccc(C(F)(F)F)cc4)n3c2)cc1 [Example 18, 6-[2-(4-Fluoro-phenyl)-2H-pyrazol-3-yl]-3-(4-trifluoromethyl-phenyl)-imidazo[1,2-a]pyridine] | 0.18 |
| 215 | N#Cc1ccc(-c2cnc3ccc(-c4ccnn4-c4ccc(F)cc4)cn23)cc1 [Example 19, 4-{6-[2-(4-Fluoro-phenyl)-2H-pyrazol-3-yl]-imidazo [1,2-a]pyridin-3-yl}-benzonitrile] | 0.03 |
| 208 | N#Cc1ccc(-c2cnc3ccc(-c4ccnn4-c4ccc(Cl)cc4)cn23)cc1 [Example 20, 4-{6-[2-(4-Chloro-phenyl)-2H-pyrazol-3-yl]-imidazo[1,2-a]pyridin-3-yl}-benzonitrile] | 0.04 |
| 259 | CS(=O)(=O)c1ccc(-c2cnc3ccc(-c4ccnn4-c4ccc(Cl)cc4)cn23)cc1 [Example 21, 6-[2-(4-Chloro-phenyl)-2H-pyrazol-3-yl]-3-(4-methanesulfonyl-phenyl)-imidazo[1,2-a]pyridine] | 0.25 |
| 226 | CS(=O)(=O)c1ccc(-c2cnc3ccc(-c4ccnn4-c4ccc(F)cc4)cn23)cc1 [Example 22, 6-[2-(4-Fluoro-phenyl)-2H-pyrazol-3-yl]-3-(4-methanesulfonyl-phenyl)-imidazo[1,2-a]pyridine] | 0.24 |
| 147 | Fc1ccc(-c2cnc3ccc(-c4ccnn4-c4ccc(C(F)(F)F)cc4)cn23)cc1 [Example 23, 3-(4-Fluoro-phenyl)-6-[2-(4-trifluoromethyl-phenyl)-2H-pyrazol-3-yl]-imidazo[1,2-a]pyridine] | 0.79 |
| 201 | N#Cc1ccc(-c2cnc3ccc(-c4ccnn4-c4ccc(C(F)(F)F)cc4)cn23)cc1 [Example 24, 4-{6-[2-(4-Trifluoromethyl-phenyl)-2H-pyrazol-3-yl]-imidazo [1,2-a]pyridin-3-yl}-benzonitrile] | 2.6 |
